The subject of test [1] is cell-free peptide synthesis system derived from Escherichia coli. The test is described as follows: Cell-free biosynthesis of the integrin binding peptide fusion protein with N-terminal tag, 1 hour reaction, amount measured by ELISA. The test is classed as biochemical. An excerpt: In the cell-free peptide synthesis system derived from Escherichia coli, the effect of the VKKX tag on the biosynthesis amount of the polypeptide was examined. As a polypeptide to be biosynthesized, an integrin binding peptide containing cysteine and chloroacetyl lysine was selected. In this polypeptide, a thiol group of cysteine and a chloroacetyl group of chloroacetyl lysine spontaneously form a thioether bond to become a cyclic polypeptide.
A fusion protein in which an integrin binding peptide, a Myc tag, and a HiBiT tag were linked in this order was designed. As a spacer, Gly-Gly-Ser was inserted between the integrin binding peptide and the Myc tag and between the Myc tag and the HiBiT tag. The amino acid sequence of this fusion protein is SEQ ID NO: 5, and the base sequence encoding this fusion protein is SEQ ID NO: 6. In SEQ ID NO: 5, the integrin binding peptide ranges to the amino acid at the twelfth position (that is, alanine) from an N-terminal, and the amino acid at eleventh position from the N-terminal is chloroacetyl lysine. The triplet TAG at the positions 31 to 33 from the 5′ terminal of the base sequence set forth in SEQ ID NO: 6 was assigned to the codon of chloroacetyl lysine. The end of the base sequence set forth in SEQ ID NO: 6 is the stop codon TAA.
A base sequence encoding a tagged fusion protein in which methionine, a VKKX tag (any of SEQ ID nOs: 7 to 52), and a fusion protein (SEQ ID NO: 5) were linked in this order was designed. In this base sequence, a base sequence (any of SEQ ID nOs: 53 to 98) encoding a VKKX tag is arranged immediately after the start codon ATG, and a base sequence encoding a fusion protein immediately after the base sequence (SEQ ID NO: 6) encoding the VKKX tag is arranged.
As a control example for evaluating the effect of the VKKX tag, a base sequence in which a base sequence (SEQ ID NO: 6) encoding a fusion protein arranged immediately after the start codon ATG was designed.
In order to translate chloroacetyl lysine which is an unnatural amino acid, a tRNA in which the anticodon was CUA and paired with the UAG codon of mRNA was prepared. This tRNA was aminoacylated with an N-chloroacetyl lysine hosphoro 2′ deoxyribocytidylylriboadenosine (pdCpA) ester. This aminoacyl tRNA is referred to as an Aminoacyl tRNA (1).
(§1) The cell-free biosynthesis of the polypeptide was carried out in a translation solution containing a template DNA, PUREfrex 2.0 (GeneFrontier, PF201-0.25-5), and Aminoacyl tRNA (1). 1.25 μL (62.5 ng) of the template DNA prepared to 50 ng/μL, 2.5 μL of PUREfrex 2.0 Solution I, 0.25 μL of Solution II, 0.5 μL of Solution III, and 0.5 μL of Aminoacyl tRNA (1) were mixed and mixture was subjected to a reaction at 37° ° C. for 1 hour.
The amount of the biosynthesized polypeptide was measured by ELISA. 50 ng of Recombinant Human Integrin αVβ3 (R&D systems, 3050-AV-050) was immobilized in each well of a 96-well plate and blocked with Blocker Casein in PBS (Thermo, 37528), and then a cell-free biosynthesis solution diluted with Can Get Signal Immunoreaction Enhancer Solution I (TOYOBO, NKB-101) containing 5 mmol/L MgCl2 was added thereto, and the mixture was subjected to a reaction at room temperature for 3 hours. After washing with 5 mmol/L MgCl2/0.05% Tween 20-containing phosphate buffered saline (PBS), an anti-Myc antibody (Cell Signaling, 14038S) diluted with Can Get Signal Immunoreaction Enhancer Solution II (TOYOBO, NKB-101) was added thereto, and the mixture was subjected to a reaction at room temperature for 2 hours. After washing with PBS containing 5 mmol/L MgCl2/0.05% Tween 20, Super Signal ELISA Femto Substrate (Thermo, 37075) was added thereto, and the luminescence was measured. The amount of the fusion protein in the cell-free biosynthesis solution was calculated based on a calibration curve created from the fusion protein having a known concentration. The luminescence measurement was performed twice, and the average value of the amounts of the fusion protein was calculated. […]
In general terms: ELISA stands for enzyme-linked immunosorbent assay.

The test system is the same in test [2]. The test is described as follows: Cell-free biosynthesis of the integrin binding peptide fusion protein with tag, reaction time 10 minutes, ELISA. The test is classed as biochemical. The conditions noted are these: for Biosynthesis amount of fusion protein: relative value, control without tag = 1, reaction time 10 minutes, fusion protein SEQ ID NO: 5, SKIK encoded by SEQ ID NO: 110. The procedure:
as §1
The amount of the biosynthesized polypeptide was measured by ELISA. 50 ng of Recombinant Human Integrin αVβ3 (R&D systems, 3050-AV-050) was immobilized in each well of a 96-well plate and blocked with Blocker Casein in PBS (Thermo, 37528), and then a cell-free biosynthesis solution diluted with Can Get Signal Immunoreaction Enhancer Solution I (TOYOBO, NKB-101) containing 5 mmol/L MgCl2 was added thereto, and the mixture was subjected to a reaction at room temperature for 3 hours. After washing with 5 mmol/L MgCl2/0.05% Tween 20-containing phosphate buffered saline (PBS), an anti-Myc antibody (Cell Signaling, 14038S) diluted with Can Get Signal Immunoreaction Enhancer Solution II (TOYOBO, NKB-101) was added thereto, and the mixture was subjected to a reaction at room temperature for 2 hours. After washing with PBS containing 5 mmol/L MgCl2/0.05% Tween 20, Super Signal ELISA Femto Substrate (Thermo, 37075) was added thereto, and the luminescence was measured. The amount of the fusion protein in the cell-free biosynthesis solution was calculated based on a calibration curve created from the fusion protein having a known concentration. The luminescence measurement was performed twice, and the average value of the amounts of the fusion protein was calculated. Table 2-1 and Table 2-2 show relative values of the biosynthesis amounts of respective fusion proteins in a case where the amount of the fusion protein of the control example was set to the reference value 1.
As a comparative control, a SKIK tag represented by SEQ ID NO: 107 was selected. The polypeptide to be biosynthesized is the fusion protein containing the integrin binding peptide, as in Example 1.
Using a template DNA including DNA sequences (SEQ ID NOs: 73 to 98) encoding VKKX tags represented by SEQ ID NOs: 27 to 52 produced in Example 1, and a DNA sequence (SEQ ID NO: 110) encoding a SKIK tag represented by SEQ ID NO: 107 produced in Example 2, the biosynthesis reaction was performed in the same manner as in Example 1 by setting the reaction time to 10 minutes. In the same manner in Example 1, the fusion protein was expressed by the cell-free peptide synthesis system and quantified by ELISA. The measurement was performed twice, and the average value of the amounts of the fusion protein was calculated. […] As control example used in Example 1, the control example of the reference value 1 has a form in which the base sequence (SEQ ID NO: 6) encoding the fusion protein is arranged immediately after the start codon ATG.

We go through 2 substances from US20240247253A1, “PRODUCTION METHOD OF POLYPEPTIDE, TAG, EXPRESSION VECTOR, EVALUATION METHOD OF POLYPEPTIDE, PRODUCTION METHOD OF NUCLEIC ACID DISPLAY LIBRARY, AND SCREENING METHOD” (FUJIFILM Corporation, priority 2021, published 2024).

“SEQ ID NO: 27: VKKX tag, amino acid sequence VKKTKT (VKKX Tag)”: the “increase of biosynthesis amount of the fusion protein” value in test [1] (Example 1, versus control without tag, fusion protein SEQ ID NO: 5, 1 hour) was 4.9 times. For the same substance, the “Biosynthesis amount of fusion protein” value came to 4.94 in test [1] (relative value, control example without tag = 1, fusion protein SEQ ID NO: 5, 37° C. for 1 hour, average of two measurements); 4.94 in test [1] (tag encoded by base sequence SEQ ID NO 73, GC content 17%, control without tag = 1); 3.83 in test [1] (tag encoded by base sequence SEQ ID NO 111, GC content 33%, control without tag = 1); 3.77 in test [1] (tag encoded by base sequence SEQ ID NO 112, GC content 50%, control without tag = 1); 12.81 in test [2].

“SEQ ID NO: 107: tag consisting of an amino acid sequence of SKIK, disclosed in WO2016/204198A; comparative control (SKIK Tag) [reference compound]”: the “Biosynthesis amount of fusion protein” value in test [1] (tag encoded by base sequence SEQ ID NO 108, GC content 8%, control without tag = 1) is listed as 3.79; in test [1] (tag encoded by base sequence SEQ ID NO 109, GC content 25%, control without tag = 1), 4.18; in test [1] (tag encoded by base sequence SEQ ID NO 110, GC content 42%, control without tag = 1), 1.46; in test [2], 1.27. For the same substance, the “increase rate of expression level of the fusion protein” value in test [2] (text of Example 3, incubation time of biosynthesis reaction 10 minutes) is 1.3 times.
